35 compounds from patent publication US20250145598A1, “ACID CERAMIDASE INHIBITORS AND USES THEREOF” (The Regents of the University of California, priority 2021, published 2025) can be followed below.

The assay concerns the target T1, Acid ceramidase (Homo sapiens, UniProt Q13510).
T1 sequence (Q13510 22-395): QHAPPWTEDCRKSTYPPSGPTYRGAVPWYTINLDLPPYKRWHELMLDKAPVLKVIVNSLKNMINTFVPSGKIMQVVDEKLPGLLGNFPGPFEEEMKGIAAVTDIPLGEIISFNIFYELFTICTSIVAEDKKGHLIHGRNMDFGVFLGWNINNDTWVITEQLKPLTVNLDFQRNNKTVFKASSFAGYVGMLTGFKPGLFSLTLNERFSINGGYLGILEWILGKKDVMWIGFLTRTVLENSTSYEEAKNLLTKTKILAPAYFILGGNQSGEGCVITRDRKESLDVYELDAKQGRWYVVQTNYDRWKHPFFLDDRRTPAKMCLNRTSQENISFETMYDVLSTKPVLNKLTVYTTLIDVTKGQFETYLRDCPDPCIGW
Put plainly: Acid ceramidase assay (AC in vitro IC50). It counts as biochemical. To be noted: Acid ceramidase assay data of example compounds.
Turning to `C[C@H](Oc1ccc(-c2cn(C(=O)NCCCOc3ccccc3)cn2)cc1)c1ccc(S(C)(=O)=O)cc1` (single isomer, unassigned) [AC2020601-0348], the 50% inhibitory concentration (IC50) is less than 300 nM. Turning to `C[C@@H](Oc1ccc(-c2cn(C(=O)NCCCOc3ccccc3)cn2)cc1)c1ccc(S(C)(=O)=O)cc1` (single isomer, unassigned) [AC2020601-0349], the half-maximal inhibitory concentration (IC50) was less than 300 nM. In turn, `CS(=O)(=O)c1ccc(COc2ccc(-c3cn(C(=O)NC[C@@H]4CCN(c5ccccc5)C4)cn3)cc2)cc1` (single isomer, unassigned) [AC2020601-0384a] yielded an IC50 of less than 300 nM. In turn, `CS(=O)(=O)c1ccc(COc2ccc(-c3cn(C(=O)NC[C@H]4CCN(c5ccccc5)C4)cn3)cc2)cc1` (single isomer, unassigned) [AC2020601-0384b] showed an IC50 of less than 300 nM. For the compound `CCCCCCNC(=O)n1cnc(-c2ccccc2OCc2ccccc2)c1` [AC2020601-0199, 4-(2-(benzyloxy)phenyl)-N-hexyl-1H-imidazole-1-carboxamide], the IC50 was less than 300 nM. In the case of `O=C(NCC1CC1)n1cnc(-c2ccc(OCc3ccc(F)cc3)cc2)c1` [AC2020601-0206, N-(cyclopropylmethyl)-4-(4-(4-fluorobenzyloxy)Vphenyl)-1H-imid azole-1-carboxamide], the IC50 is less than 300 nM. On to `CS(=O)(=O)c1ccc(COc2ccc(-c3cn(C(=O)NCCCCc4ccccc4)cn3)cc2)cc1` [AC2020601-0243, 4-(4-((4-(methylsulfonyl)benzyl)oxy)phenyl)-N-(4-phenylbutyl)-1H-imidazole-1-carboxamide], for which the IC50 is less than 300 nM. Turning to `O=C(NCCCCc1ccccc1)n1cnc(-c2ccc(OCc3cccc(N4CCOCC4)c3)cc2)c1` [AC2020601-0245, 4-(4-((3-morpholinobenzyl)oxy)phenyl)-N-(4-phenylbutyl)-1H-imidazole-1-carboxamide], the IC50 is less than 300 nM. `NC(=O)c1cccc(COc2ccc(-c3cn(C(=O)NCCCCc4ccccc4)cn3)cc2)c1` [AC2020601-0246, 4-(4-((3-carbamoylbenzyl)oxy)phenyl)-N-(4-phenylbutyl)-1H-imidazole-1-carboxamide]: the half-maximal inhibitory concentration (IC50) was less than 300 nM. `N#Cc1cccc(COc2ccc(-c3cn(C(=O)NCCCCc4ccccc4)cn3)cc2)c1` [AC2020601-0275, 4-(4-((3-cyanobenzyl)oxy)phenyl)-N-(4-phenylbutyl)-1H-imidazole-1-carboxamide] came in with a half-inhibitory concentration (IC50) of less than 300 nM. Regarding `O=C(NCCCCc1ccccc1)n1cnc(-c2ccc(OCc3cccnc3)cc2)c1` [AC2020601-0276, N-(4-phenylbutyl)-4-(4-(pyridin-3-ylmethoxy)phenyl)-1H-imidazole-1-carboxamide], the IC50 is less than 300 nM. In the case of `CN(CCCCc1ccccc1)C(=O)n1cnc(-c2ccc(OCc3ccccc3)cc2)c1` [AC2020601-0278, 4-(4-(benzyloxy)phenyl)-N-methyl-N-(4-phenylbutyl)-1H-imidazole-1-carboxamide], the IC50 is more than 3000 nM. `NS(=O)(=O)c1ccc(COc2ccc(-c3cn(C(=O)NCCCCc4ccccc4)cn3)cc2)cc1` [AC2020601-0284, N-(4-phenylbutyl)-4-(4-((4-sulfamoylbenzyl)oxy)phenyl)-1H-imidazole-1-carboxamide] showed an IC50 of less than 300 nM.

In turn, `CS(=O)(=O)c1ccc(COc2ccc(-c3cn(C(=O)NCCCOc4ccccc4)cn3)cc2)cc1` [AC2020601-0294, 4-(4-((4-(methylsulfonyl)benzyl)oxy)phenyl)-N-(3-phenoxypropyl)-1H-imidazole-1-carboxamide] registered an IC50 of less than 300 nM. As for `CS(=O)(=O)c1ccc(COc2ccc(-c3cn(C(=O)NCC4CC4)cn3)cc2)cc1` [AC2020601-0295, N-(cyclopropylmethyl)-4-(4-((4-(methylsulfonyl)benzyl)oxy)phenyl)-1H-imidazole-1-carboxamide], the IC50 was less than 300 nM. With `CCCCCCNC(=O)n1cnc(-c2ccc(OCc3ccc(S(C)(=O)=O)cc3)cc2)c1` [AC2020601-0296, N-hexyl-4-(4-((4-(methylsulfonyl)benzyl)oxy)phenyl)-1H-imidazole-1-carboxamide], the IC50 was less than 300 nM. `CS(=O)(=O)c1ccc(CNC(=O)n2cnc(-c3ccc(OCc4ccc(S(C)(=O)=O)cc4)cc3)c2)cc1` [AC2020601-0303, N-(4-(methylsulfonyl)benzyl)-4-(4-((4-(methylsulfonyl)benzyl)oxy)phenyl)-1H-imidazole-1-carboxamide] came in with an IC50 of 301 to 3000 nM. As to `CS(=O)(=O)Nc1ccc(COc2ccc(-c3cn(C(=O)NCCCCc4ccccc4)cn3)cc2)cc1` [AC2020601-0306, 4-(4-((4-(methylsulfonamido)benzyl)oxy)phenyl)-N-(4-phenylbutyl)-1H-imidazole-1-carboxamide], the IC50 was less than 300 nM.

`CS(=O)(=O)c1ccc(COc2ccc(-c3cn(C(=O)NCC4CN(c5ccccc5)C4)cn3)cc2)cc1` [AC2020601-0321, 4-(4-((4-(methylsulfonyl)benzyl)oxy)phenyl)-N-((1-phenylazetidin-3-yl)methyl)-1H-imidazole-1-carboxamide] registered an IC50 of less than 300 nM. For `O=C(NCCCCc1ccccc1)n1cnc(-c2ccc(OCc3ccncc3)cc2)c1` [AC2020601-0323, N-(4-phenylbutyl)-4-(4-(pyridin-4-ylmethoxy)phenyl)-1H-imidazole-1-carboxamide] the value was less than 300 nM.

In turn, `NS(=O)(=O)c1ccc(COc2ccc(-c3cn(C(=O)NCCCOc4ccccc4)cn3)cc2)cc1` [AC2020601-0324] gave an IC50 of less than 300 nM. In the case of `CS(=O)(=O)Nc1ccc(COc2ccc(-c3cn(C(=O)NCCCOc4ccccc4)cn3)cc2)cc1` [AC2020601-0327, 4-(4-((4-(methylsulfonamido)benzyl)oxy)phenyl)-N-(3-phenoxypropyl)-1H-imidazole-1-carboxamide], the IC50 was less than 300 nM. The result for `O=C(Nc1ccc(COc2ccc(-c3cn(C(=O)NCCCOc4ccccc4)cn3)cc2)cc1)C1CC1` [AC2020601-0328, 4-(4-((4-(cyclopropanecarboxamido)benzyl)oxy)phenyl)-N-(3-phenoxypropyl)-1H-imidazole-1-carboxamide] reads less than 300 nM; that for `CNS(=O)(=O)c1ccc(COc2ccc(-c3cn(C(=O)NCCCOc4ccccc4)cn3)cc2)cc1` [AC2020601-0339, 4-(4-((4-(N-methylsulfamoyl)benzyl)oxy)phenyl)-N-(3-phenoxypropyl)-1H-imidazole-1-carboxamide], less than 300 nM. In the case of `CN1CCN(S(=O)(=O)c2ccc(COc3ccc(-c4cn(C(=O)NCCCOc5ccccc5)cn4)cc3)cc2)CC1` [AC2020601-0342, 4-(4-((4-((4-methylpiperazin-1-yl)sulfonyl)benzyl)oxy)phenyl)-N-(3-phenoxypropyl)-1H-imidazole-1-carboxamide], the concentration for half-maximal inhibition (IC50) is less than 300 nM. Compound `O=C(NCCCOc1ccccc1)n1cnc(-c2ccc(OCc3ccc(S(=O)(=O)N4CCOCC4)cc3)cc2)c1` [AC2020601-0347, 4-(4-((4-(morpholinosulfonyl)benzyl)oxy)phenyl)-N-(3-phenoxypropyl)-1H-imidazole-1-carboxamide] showed an IC50 of less than 300 nM. Take `O=C(NCCCOc1ccccc1)n1cnc(-c2ccc(OCc3ccc(NS(=O)(=O)C(F)F)cc3)cc2)c1` [AC2020601-0363, 4-(4-((4-(difluoromethylsulfonamido)benzyl)oxy)phenyl)-N-(3-phenoxypropyl)-1H-imidazole-1-carboxamide]: the IC50 is less than 300 nM.

In the case of `CS(=O)(=O)c1ccc(COc2ccc(-c3cn(C(=O)NCCCOc4ccc(C#N)cc4)cn3)cc2)cc1` [AC2020601-0373, N-(3-(4-cyanophenoxy)propyl)-4-(4-(4-(methylsulfonyl)benzyloxy)phenyl)-1H-imidazole-1-carboxamide], the IC50 is less than 300 nM. As for `CS(=O)(=O)c1ccc(COc2ccc(-c3cn(C(=O)NCCCOc4ccc(S(F)(F)(F)(F)F)cc4)cn3)cc2)cc1` [AC2020601-0374], the IC50 is less than 300 nM.

In turn, `CS(=O)(=O)c1ccc(COc2ccc(-c3cn(C(=O)NCC4CN(Cc5ccccc5)C4)cn3)cc2)cc1` [AC2020601-0377, N-((1-benzylazetidin-3-yl)methyl)-4-(4-((4-(methylsulfonyl)benzyl)oxy)phenyl)-1H-imidazole-1-carboxamide] came in with an IC50 of more than 3000 nM. `CC(C)N1CC(CNC(=O)n2cnc(-c3ccc(OCc4ccc(S(C)(=O)=O)cc4)cc3)c2)C1` [AC2020601-0379, N -((1-isopropylazetidin-3-yl)methyl)-4-(4-((4-(methylsulfonyl)benzyl)oxy)phenyl)-1H-imidazole-1-carboxamide] registered an IC50 of more than 3000 nM. The result for `CS(=O)(=O)Nc1ccc(COc2ccc(-c3cn(C(=O)NCC4CN(c5ccccc5)C4)cn3)cc2)cc1` [AC2020601-0380, 4-(4-((4-(methylsulfonamido)benzyl)oxy)phenyl)-N-((1-phenylazetidin-3-yl)methyl)-1H-imidazole-1-carboxamide] reads more than 3000 nM; that for `O=C(NCC1CN(c2ccccc2)C1)n1cnc(-c2ccc(OCc3cccc(N4CCOCC4)c3)cc2)c1` [AC2020601-0382, 4-(4-(3-morpholinobenzyloxy)phenyl)-N-((1-phenylazetidin-3-yl)methyl)-1H-imidazole-1-carboxamide], less than 300 nM; that for `O=C(Nc1ccc(COc2ccc(-c3cn(C(=O)NCC4CN(c5ccccc5)C4)cn3)cc2)cc1)C1COC1` [AC2020601-0401, 4-(4-((4-(oxetane-3-carboxamido)benzyl)oxy)phenyl)-N-((1-phenylazetidin-3-yl)methyl)-1H-imidazole-1-carboxamide], less than 300 nM. For `CS(=O)(=O)c1ccc(COc2ccc(-c3cn(C(=O)NCCN4Cc5ccccc5C4)cn3)cc2)cc1` [AC2020601-0402, N-(2-(isoindolin-2-yl)ethyl)-4-(4-(4-(methylsulfonyl)benzyloxy)phenyl)-1H-imidazole-1-carboxamide] the value was more than 3000 nM.

By IC50 is commonly meant the concentration needed to halve the response being measured. Read a high IC50 as lower potency.
